Holding throughout (assay type): cell-based
The subject of experiment [1] is primary human mesenchymal stem cells (hMSCs). Nature of the experiment: Induction of chondrogenesis in hMSCs (nodule count). Particulars: 6 days; for Emax: relative to TGF-β3 (10 ng/mL) positive control, read-out: Max. Activity as % TGF-β3 activity; for EC50: concentration required to induce 50% levels of chondrogenesis vs TGF-β3, read-out: Conc (nM) of 50% TGF-β3 activity. The text has this:
Representative compounds were screened using primary human mesenchymal stem cells (hMSCs) to determine their ability to induce chondrogenesis (process by which cartilage is developed).
Primary human mesenchymal stem cells (hMSCs) were purchased from Lonza (Walkersville, Md.) and expanded in Mesenchymal Stem Cell Growth Media (Lonza). Cells between passage 3 and 6 were used for the experiments.
To image chondrogenic nodules, the cells were fixed using 4% formaldehyde (Electron Microscopy Sciences), and stained with 2 μg/mL Rhodamine B (Sigma-Aldrich) and 20 μM Nile Red (Sigma-Aldrich) [Johnson K., et. al, A Stem Cell-Based Approach to Cartilage Repair, Science, (2012). […] Number of nodules in each well was normalized to the average of 3 DMSO treated wells on the same plate using Excel (Microsoft Inc.). The normalized averages (fold change over DMSO) of 3 replicate wells for each compound concentration were calculated. Due to solubility limitations of some of the compounds, curve fitting was incomplete leading to inaccurate EC50 determinations.
Using TGF-β3 as a positive control, the concentration of representative compounds required to induce 50% levels of chondrogenesis is reported. In addition, the maximum activity of each compound and the respective dose that each compound reached maximum chondrogenesis activity is reported.

For another experiment, the system named is SW480 colon cancer cells. Nature of the experiment: Cell viability assay (CellTiter-Blue). The note with it: Homo sapiens; for EC50: 96 h, SW480 cell viability, four days; for inhibition at 10 µM: SW480, 96 h, read-out: percent inhibition at 10 μM. The gist of the method:
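Fluorescence from resazurin reduced to resorufin by metabolically active cells was the read-out, taken after ~3 h with CellTiter-Blue.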
On the technique in general: The colour change of resazurin is a common sign of viable cells or microbes.

In experiment [2] the test system is Wnt activity (Sp5-Luc reporter, SW480 colon carcinoma cells). Briefly: Wnt activity screening assay, Sp5-Luc reporter gene in SW480 cells. Particulars: Homo sapiens; for EC50: Sp5-Luc reporter, SW480 cells, overnight incubation; for inhibition at 10 µM: SW480, read-out: percent inhibition at 10 μM. The gist of the method: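 SW480 cells stably carrying a luciferase reporter driven by an Sp5 promoter with eight TCF/LEF sites, plated overnight in 1% FBS medium at 37 °C. Luminescence read with BrightGlo. Signals normalized to DMSO-treated cells; EC50 from four-parameter variable-slope fit.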
(A reporter such as luciferase makes a cellular process visible.)

Experiment [3] relates to primary human fibroblasts derived from IPF patients (LL29 cells). Nature of the experiment: Inhibition of fibrotic process, αSMA staining in TGF-β1 treated fibroblasts. Particulars: Fibroblast; for EC50: 96 h, LL29 cells, TGF-β1 20 ng/mL, 4 days, % αSMA positive cells; for inhibition at 10 µM: read-out: percent inhibition at 10 μM. The gist of the method:
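LL29 fibroblasts plated in F12 with 1% FBS were stimulated with TGF-β1 alongside compound, with TGF-β1 plus DMSO wells as controls. After 4 days of incubation, SYTOX green was added at 1 μM final for 30 min at room temperature.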

In another experiment the test system is IL-6. Briefly: IL-6 inhibition in LPS-stimulated THP-1 cells (HTRF). Particulars: Homo sapiens; for inhibition at 10 µM: THP-1, read-out: percent inhibition at 10 μM; for EC50: THP-1 cells, LPS 500 ng/mL, 22 hours, IL6 HTRF. Summed up:
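Serum-reduced (1% FBS, 24 h) THP-1 cells, 5000/well, exposed to compound 2 h at 37 °C, then stimulated with 500 ng/mL LPS for 22 h. Secreted IL-6 measured by HTRF (665/620 ratio), normalised to DMSO; EC50 by four-parameter fit, duplicates.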
For orientation: In TR-FRET formats the signal depends on donor and acceptor labels being close together.

One may read the inhibition as the percentage by which the read-out fell short of the control. Regarding `c1cc2cc(-c3n[nH]c4ncc(-c5cncc(CN6CCCC6)c5)cc34)[nH]c2cn1` [Compound 266, 5-(5-(Pyrrolidin-1-ylmethyl)pyridin-3-yl)-3-(1H-pyrrolo[2,3-c]pyridin-2-yl)-1H-pyrazolo[3,4-b]pyridine], the Emax in experiment [1] is 36%. Further, the EC50 with SW480 colon cancer cells was 3680 nM; in experiment [2], 4880 nM; in experiment [3], above 10000 nM; with IL-6, above 10000 nM. Also, the inhibition at 10 µM was 12.9% in experiment [3] and 47.6% in the experiment on IL-6.

As to `O=C(Nc1cncc(-c2cnc3[nH]nc(-c4cc5ccncc5[nH]4)c3c2)c1)C1CCCCC1` [Compound 275, N-(5-(3-(1H-Pyrrolo[2,3-c]pyridin-2-yl)-1H-pyrazolo[3,4-b]pyridin-5-yl)pyridin-3-yl)cyclohexanecarboxamide], the EC50 in experiment [1] stood at 2700 nM; in the experiment with SW480 colon cancer cells, 3430 nM; in experiment [2], 3580 nM; in experiment [3], 1700 nM; in the experiment with IL-6 it was 395 nM. For the same molecule, the Emax in experiment [1] was 291%.

For `CC(C)CC(=O)Nc1cncc(-c2cnc3[nH]nc(-c4cc5c(-c6cc(F)cc(CNS(C)(=O)=O)c6)cncc5[nH]4)c3c2)c1` [Compound 478, N-(5-(3-(4-(3-Fluoro-5-(methylsulfonamidomethyl)phenyl)-1H-pyrrolo[2,3-c]pyridin-2-yl)-1H-pyrazolo[3,4-b]pyridin-5-yl)pyridin-3-yl)-3-methylbutanamide], in experiment [1], the Emax worked out at 46%. Moreover, the EC50 in the experiment on SW480 colon cancer cells is 7200 nM; in experiment [2], 2550 nM; in experiment [3], above 10000 nM; with IL-6, 1170 nM. The inhibition at 10 µM in experiment [3] was determined as 21.2%.

As for `CS(=O)(=O)NCc1cc(F)cc(-c2cncc3[nH]c(-c4n[nH]c5ncc(-c6cccnc6)cc45)cc23)c1` [Compound 480, N-(3-Fluoro-5-(2-(5-(pyridin-3-yl)-1H-pyrazolo[3,4-b]pyridin-3-yl)-1H-pyrrolo [2,3-c]pyridin-4-yl)benzyl)methane sulfonamide], the EC50 was 2700 nM in experiment [1]; 3650 nM in the experiment on SW480 colon cancer cells; 1460 nM in experiment [2]; 2240 nM in experiment [3]; 237 nM with IL-6. The Emax in experiment [1] worked out at 66%.

As for `CCNCc1cncc(-c2cnc3[nH]nc(-c4cc5c(-c6cc(F)cc(CNS(C)(=O)=O)c6)cncc5[nH]4)c3c2)c1` [Compound 482, N-(3-(2-(5-(5-((Ethylamino)methyl)pyridin-3-yl)-1H-pyrazolo[3,4-b]pyridin-3-yl)-1H-pyrrolo[2,3-c]pyridin-4-yl)-5-fluorobenzyl)methanesulfonamide], in experiment [1], the Emax was 43%. For the same molecule, the EC50 in the experiment with SW480 colon cancer cells was above 10000 nM; in experiment [2] it was above 10000 nM; in experiment [3], 5030 nM; in the experiment on IL-6, above 10000 nM. In addition, the inhibition at 10 µM in the experiment on SW480 colon cancer cells came to 7%; in experiment [2], 12.8%; in the experiment with IL-6, 47.9%.

Take `CC(C)C(=O)Nc1cncc(-c2cnc3[nH]nc(-c4cc5c(-c6cc(F)cc(CNS(C)(=O)=O)c6)cncc5[nH]4)c3c2)c1` [Compound 485, N-(5-(3-(4-(3-Fluoro-5-(methylsulfonamidomethyl)phenyl)-1H-pyrrolo[2,3-c]pyridin-2-yl)-1H-pyrazolo[3,4-b]pyridin-5-yl)pyridin-3-yl)isobutyramide]: the EC50 in experiment [1] was 30 nM; with SW480 colon cancer cells it was above 10000 nM; in experiment [2], above 10000 nM; in experiment [3], above 10000 nM; in the experiment on IL-6, 27 nM. Moreover, the Emax in experiment [1] was 60%. Further, the results for the inhibition at 10 µM (in the experiment with SW480 colon cancer cells; in experiment [2]; in experiment [3]) were 14%, 49.8% and 0%, respectively.

`CCCC(=O)Nc1cncc(-c2cnc3[nH]nc(-c4cc5c(-c6cc(F)cc(CNS(C)(=O)=O)c6)cncc5[nH]4)c3c2)c1` [Compound 493, N-(5-(3-(4-(3-Fluoro-5-(methylsulfonamidomethyl)phenyl)-1H-pyrrolo[2,3-c]pyridin-2-yl)-1H-pyrazolo[3,4-b]pyridin-5-yl)pyridin-3-yl)butyramide]: the Emax in experiment [1] amounted to 37%. The EC50 with SW480 colon cancer cells is above 10000 nM; in experiment [2], 1680 nM; in experiment [3], 8900 nM; with IL-6, 93 nM. The inhibition at 10 µM in the experiment on SW480 colon cancer cells is 46.1%.

For `CS(=O)(=O)NCc1cc(F)cc(-c2cncc3[nH]c(-c4n[nH]c5ncc(-c6cncc(NC(=O)C7CC7)c6)cc45)cc23)c1` [Compound 496, N-(5-(3-(4-(3-Fluoro-5-(methylsulfonamidomethyl)phenyl)-1H-pyrrolo[2,3-c]pyridin-2-yl)-1H-pyrazolo[3,4-b]pyridin-5-yl)pyridin-3-yl)cyclopropanecarboxamide], the Emax in experiment [1] stood at 23%. The EC50 was above 10000 nM with SW480 colon cancer cells, 2630 nM in experiment [2], 3530 nM in experiment [3] and 93 nM with IL-6. In addition, the inhibition at 10 µM in the experiment with SW480 colon cancer cells was 49.3%.

For `CN(C)CCOc1cncc(-c2cnc3[nH]nc(-c4cc5c(-c6ccc(F)cc6)cncc5[nH]4)c3c2)c1` [Compound 531, 2-((5-(3-(4-(4-Fluorophenyl)-1H-pyrrolo[2,3-c]pyridin-2-yl)-1H-pyrazolo [3,4-b]pyridin-5-yl)pyridin-3-yl)oxy)-N,N-dimethylethan-1-amine], the Emax in experiment [1] is 28%. Further, the EC50 with SW480 colon cancer cells is 3600 nM; in experiment [2] it was above 10000 nM; in experiment [3], above 10000 nM; with IL-6, above 10000 nM. Besides, the inhibition at 10 µM in experiment [2] is 48.5%; in experiment [3] it was 11.4%; in the experiment with IL-6 it was 22.9%.

As to `Fc1ccccc1-c1cncc2[nH]c(-c3n[nH]c4ncc(-c5cn[nH]c5)cc34)cc12` [Compound 539, 3-(4-(2-Fluorophenyl)-1H-pyrrolo[2,3-c]pyridin-2-yl)-5-(1H-pyrazol-4-yl)-1H-pyrazolo[3,4-b]pyridine], the EC50 in experiment [1] stood at 100 nM; with SW480 colon cancer cells it was 652 nM; in experiment [2], 416 nM; in experiment [3], 99 nM; in the experiment on IL-6, 169 nM. Also, the Emax in experiment [1] was determined as 51%.

As for `Cc1ncc(-c2cnc3[nH]nc(-c4cc5c(-c6ccncc6)cncc5[nH]4)c3c2)n1C` [Compound 573, 5-(1,2-Dimethyl-1H-imidazol-5-yl)-3-(4-(pyridin-4-yl)-1H-pyrrolo[2,3-c]pyridin-2-yl)-1H-pyrazolo[3,4-b]pyridine], the EC50 in experiment [1] was 10 nM; with SW480 colon cancer cells it was above 10000 nM; in experiment [2], above 10000 nM; in experiment [3], above 10000 nM; in the experiment on IL-6 it was above 10000 nM. In addition, the Emax in experiment [1] came to 194%. Also, the inhibition at 10 µM in the experiment on SW480 colon cancer cells is 19.8%; in experiment [2], 7.1%; in experiment [3], 46.7%; with IL-6, 0%.
